Experimental data reported in patent publication US20260317337A1, “HETEROCYCLIC COMPOUNDS FOR IMAGING AGGREGATED ALPHA SYNUCLEIN IN THE SYNUCLEINOPATHIES” (THE TRUSTEES OF THE UNIVERSITY OF PENNSYLVANIA, priority 2023, published 2026).
Like-named read-outs stand apart in the source and are kept apart here.

How the values were obtained:
[1] = target: aggregated tau (Homo sapiens, UniProt P10636); test: Blocking of the ^3H-labelled compound with tau ligands, homogenate binding and autoradiography; conditions: AD, CBD and PSP
Sequence of aggregated tau (P10636 whole entry): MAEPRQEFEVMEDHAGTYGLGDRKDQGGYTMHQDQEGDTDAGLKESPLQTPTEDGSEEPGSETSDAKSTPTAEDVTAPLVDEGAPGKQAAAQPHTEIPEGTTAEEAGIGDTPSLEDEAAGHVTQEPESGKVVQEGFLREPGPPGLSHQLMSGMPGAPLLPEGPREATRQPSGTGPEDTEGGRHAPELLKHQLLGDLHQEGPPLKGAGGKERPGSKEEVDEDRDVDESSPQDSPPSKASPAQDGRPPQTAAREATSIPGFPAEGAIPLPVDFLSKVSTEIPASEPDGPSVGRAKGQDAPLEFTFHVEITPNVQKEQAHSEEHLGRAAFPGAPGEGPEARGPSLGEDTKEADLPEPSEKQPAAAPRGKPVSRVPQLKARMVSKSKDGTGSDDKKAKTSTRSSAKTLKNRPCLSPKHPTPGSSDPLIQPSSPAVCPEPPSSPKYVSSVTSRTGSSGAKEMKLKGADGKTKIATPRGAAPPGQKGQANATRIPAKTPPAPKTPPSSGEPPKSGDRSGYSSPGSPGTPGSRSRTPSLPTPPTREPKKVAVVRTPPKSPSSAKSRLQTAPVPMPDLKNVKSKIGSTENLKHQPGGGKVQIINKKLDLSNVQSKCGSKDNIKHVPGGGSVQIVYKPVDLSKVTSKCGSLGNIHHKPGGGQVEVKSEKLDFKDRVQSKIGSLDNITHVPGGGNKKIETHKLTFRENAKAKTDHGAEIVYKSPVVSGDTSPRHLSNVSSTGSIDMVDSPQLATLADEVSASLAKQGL

[2] = target: T1, alpha synuclein (Homo sapiens, UniProt P37840); test: Autoradiography in postmortem brain tissue sections; assay type: binding; conditions: PD, MSA and control brain sections
T1 construct: autoradiography
Protocol: FIGS. 1A and 1C are nuclear emulsion autoradiography images of a postmortem brain samples (A—[…] PD brain; C—MSA brain) after administration of ^3H-Compound 103. FIGS. 1B and 1D are the same samples from FIGS. 1A and 1C after incubating sequentially with anti-phospho-α-syn (S129) antibody (p-syn/81A, BioLegend) and Alexa Fluor 488 goat anti-mouse secondary antibody to immunostain LBs and LNs. FIGS. 1E and 1G are nuclear emulsion autoradiography images of postmortem brain samples of (E—PD brain; G—[…] MSA brain) with ^3H-Compound 43. FIGS. 1F and 1H are the same samples from FIGS. 1E and 1G after incubating sequentially with anti-phospho-α-syn (S129) antibody (p-syn/81A, BioLegend) and Alexa Fluor 488 goat anti-mouse secondary antibody to immunostain LBs and LNs.
FIG. 3 are autoradiography images in tissue sections of ^3H-Compound 103 and ^3H-Compound 43 in PD, MSA and control brain. Neuropathological scores for Abeta, tau and Asyn are shown for each tissue section.
Kd and Bmax values of [^3H]-Compound 113 were obtained from a panel of postmortem brain samples (e.g., PD, MSA, corticobasal degeneration (CBD), progressive supranuclear palsy (PSP), Alzheimer's disease (AD)). Nuclear emulsion autoradiography identified the distribution of [^3H]-Compound 113 on PD and MSA tissues for aggregated Asyn, which was confirmed by antibody staining. […]

[3] = Dynamic PET imaging in non-human primate; assay type: in vivo
Protocol: FIG. 2 are dynamic whole body PET images of ^11C-compound 103 in a non-human primate 1-90 minutes after administration ^11C-compound 103.
FIG. 6 are dynamic PET images (top) and time-activity curves for whole brain and different brain regions (bottom) of ^11C-compound 103 in a non-human primate and show the high uptake and rapid washout of [^11C]-compound 103.
FIG. 7 are dynamic PET images (top) and time-activity curves (bottom) of ^11C-compound 43 in a non-human primate and show the high uptake and rapid washout of [^11C]-compound 43.
Kd and Bmax values of [^3H]-Compound 113 were obtained from a panel of postmortem brain samples (e.g., PD, MSA, corticobasal degeneration (CBD), progressive supranuclear palsy (PSP), Alzheimer's disease (AD)). Nuclear emulsion autoradiography identified the distribution of [^3H]-Compound 113 on PD and MSA tissues for aggregated Asyn, which was confirmed by antibody staining. Dynamic whole body PET images of [^11C]-Compound 113 in non-human primate were obtained over 90 min. […] The non-human primate PET study confirmed that [^11C]-Compound 113 had good brain uptake (SUV ~1.6) and rapid washout (2:60 min ratio ~3.0).

[4] = target: α-synuclein fibrils (Homo sapiens, UniProt P37840); test: Competitive radioligand binding with [^3H]BF2846 on α-synuclein fibrils; conditions: [^3H]BF2846, α-synuclein fibrils; mean + Sd, n = 3; read-out: α-syn Ki
Protocol: Competition binding assays were performed with [^3H]BF2846 and [^3H]PIB to measure affinity to Asyn and Aβ. […]

For Fc1cc(-c2ccc3c(n2)[nH]c2ccncc23)ccn1 [PI-2620], the “blocking of [^3H]-Compound 113 binding by tau ligands” value [1] was “could not be blocked”.
In the case of COc1ccc(NC(=O)c2cnc(Cl)nc2)cc1 [[^3H]-Compound 43], the “ability to image alpha synuclein in human postmortem samples” value [2] is reported as “PD and not MSA and age-matched control”.
With COc1ccc(C(=O)Nc2ccc(N3C4CCC3CN(c3ccccn3)C4)cc2)cc1 [[^11C]-Compound 103, 4-methoxy-N-(4-(3-(pyridin-2-yl)-3,8-diazabicyclo[3.2.1]octan-8-yl)phenyl)benzamide] the “uptake (words)” value [3] was “high brain uptake”, the “washout” value [3] was “rapid washout” and the “uptake (words)” value ([3]; listed as [^11C]-compound 103) was “high uptake”.
For COc1ccc(NC(=O)c2cnc(Cl)nc2)cc1 [[^11C]-compound 43], the “uptake (words)” value [3] was “high uptake” and the “washout” value [3] was “rapid washout”.
In the case of COc1ccc(C(=O)Nc2ccc(N3C4CCC3CN(c3ccccn3)C4)cc2)cc1 [[^3H]-Compound 103, 4-methoxy-N-(4-(3-(pyridin-2-yl)-3,8-diazabicyclo[3.2.1]octan-8-yl)phenyl)benzamide], the “ability to image alpha synuclein in human postmortem samples” value [2] is reported as “MSA and not PD and age-matched control”.
Work on CCOC(=O)c1cnc(N2CCCN(c3cnc4ccccc4c3)CC2)nc1N [Compound 8, Ethyl 4-amino-2-(4-(quinolin-3-yl)-1,4-diazepan-1-yl)pyrimidine-5-carboxylate] yielded a Ki [4] of 15.2 nM.
In the case of CCOC(=O)c1cnc(N2CCN(c3ccc4ccccc4n3)CC2)nc1N [Compound 15, Ethyl 4-amino-2-(4-(quinolin-2-yl)piperazin-1-yl)pyrimidine-5-carboxylate], the Ki [4] is reported as 10.8 nM.
With CCOC(=O)c1cnc(N2CCN(c3nc4ccccc4s3)CC2)nc1N [Compound 11, Ethyl 4-amino-2-(4-(benzo[d]thiazol-2-yl)piperazin-1-yl)pyrimidine-5-carboxylate] the Ki [4] was 12.9 nM.
Compound CCOC(=O)c1cnc(N2CC3CCC(C2)N3c2cnc3ccccc3c2)nc1N [Compound 6, Ethyl 4-amino-2-(8-(quinolin-3-yl)-3,8-diazabicyclo[3.2.1]octan-3-yl)pyrimidine-5-carboxylate] has a Ki [4] of 9.9 nM.
For COc1ccc(NC(=O)c2cnc(N3CCN(c4nccs4)CC3)nc2N)cc1 [Compound 124, 4-Amino-N-(4-methoxyphenyl)-2-(4-(thiazol-2-yl)piperazin-1-yl)pyrimidine-5-carboxamide], the Ki [4] was 29.9 nM.
In the case of CNc1ccc(/C=C/C=C/c2nc3ccc(OCC(O)CF)cc3s2)cn1 (centres unmarked) [PM-PBB3], the “blocking of [^3H]-Compound 113 binding by tau ligands” value [1] is reported as “could not be blocked”.
